Our source for the viability values is patent US9835558B2, “Aggregation-induced emission luminogen having an peptide sequence and its uses thereof” (priority 2015, dated 2017).

Broadly, the viability is a read-out of living cells in per cent, often relative to untreated cells.

This series in a line: cyto-toxicity by MTT assay. It counts as cell-based. As to conditions: human, MCF-7 cells; TR4 0.05-50 μM, incubation for 30 min, MCF-7, data not shown; read-out: cellular viability.

Residues, ends and D or L forms follow the SMILES beside them. *: point of attachment. X1 = O=C(COc1ccc(C(=C(c2ccccc2)c2ccccc2)c2ccccc2)cc1)*; Palmitoyl = CCCCCCCCCCCCCCCC(=O)*

As for `CCCCCCCCCCCCCCCC(=O)NCCCC[C@H](NC(=O)COc1ccc(C(=C(c2ccccc2)c2ccccc2)c2ccccc2)cc1)C(=O)N[C@@H](CCCNC(=N)N)C(=O)N[C@@H](CCCNC(=N)N)C(=O)N[C@@H](CCCNC(=N)N)C(=O)N[C@@H](CCCNC(=N)N)C(N)=O` [TR4] (X1-K(Palmitoyl)RRRR-NH2), the viability at 0.5 h is over 80%.
